System: MV-4-11 cells
Assay: Gene expression microarray analysis (Affymetrix PrimeView) and GSEA
Format: cell-based, human
Design: RFU PODN (11730768_x_at) / Fold change /veh PODN (11730768_x_at) / RFU LINC00158 (11744669_a_at) / Fold change /veh LINC00158 (11744669_a_at) / RFU DUSP10 (11751237_a_at) / Fold change /veh DUSP10 (11751237_a_at) / RFU ID3 (11757404_x_at) / Fold change /veh ID3 (11757404_x_at) / RFU PLEKHG5 (11737974_s_at) / Fold change /veh PLEKHG5 (11737974_s_at) / RFU LRRC4B (11730491_at) / Fold change /veh LRRC4B (11730491_at) / RFU GIMAP4 (11747438_a_at) / Fold change /veh GIMAP4 (11747438_a_at) / RFU KRT8 (11758183_x_at) / Fold change /veh KRT8 (11758183_x_at) / RFU CNN1 (11734310_a_at) / Fold change /veh CNN1 (11734310_a_at) / RFU VPS37D (11726825_at) / Fold change /veh VPS37D (11726825_at) / RFU C10orf10 (11716522_x_at) / Fold change /veh C10orf10 (11716522_x_at) / RFU KIR2DL2 /// KIR2DL4 /// KIR2DL5A /// KIR2DL5B /// KIR2DS1 /// KIR2DS2 /// KIR2DS3 /// KIR2DS4 /// KIR3DL3 /// KIR3DL3 /// KIR3DS1 (11738374_at) / Fold change /veh KIR2DL2 /// KIR2DL4 /// KIR2DL5A /// KIR2DL5B /// KIR2DS1 /// KIR2DS2 /// KIR2DS3 /// KIR2DS4 /// KIR3DL3 /// KIR3DL3 /// KIR3DS1 (11738374_at) / RFU C1QL1 (11718748_at) / Fold change /veh C1QL1 (11718748_at) / RFU TMPRSS4 (11747572_a_at) / Fold change /veh TMPRSS4 (11747572_a_at) / RFU HAMP (11756126_x_at) / Fold change /veh HAMP (11756126_x_at) / RFU RNFT2 (11725882_a_at) / Fold change /veh RNFT2 (11725882_a_at) / RFU NR4A2 (11747474_a_at) / Fold change /veh NR4A2 (11747474_a_at) / RFU ABCC12 (11746883_a_at) / Fold change /veh ABCC12 (11746883_a_at) / RFU TMEM136 (11760407_x_at) / Fold change /veh TMEM136 (11760407_x_at) / RFU CLDN22 /// WWC2 (11732394_at) / Fold change /veh CLDN22 /// WWC2 (11732394_at) / RFU HLA-DPB1 (11760878_x_at) / Fold change /veh HLA-DPB1 (11760878_x_at) / RFU SPINT1 (11716480_a_at) / Fold change /veh SPINT1 (11716480_a_at) / RFU GAP43 (11754022_s_at) / Fold change /veh GAP43 (11754022_s_at) / RFU A4GNT (11735810_at) / Fold change /veh A4GNT (11735810_at) / RFU PRB3 (11715151_x_at) / Fold change /veh PRB3 (11715151_x_at) / RFU TUBB4B (11761932_at) / Fold change /veh TUBB4B (11761932_at) / RFU CAPN14 (11732068_a_at) / Fold change /veh CAPN14 (11732068_a_at) / RFU TMCC2 (11721928_a_at) / Fold change /veh TMCC2 (11721928_a_at) / RFU IRGQ (11745062_a_at) / Fold change /veh IRGQ (11745062_a_at) / RFU FAM174B (11720279_a_at) / Fold change /veh FAM174B (11720279_a_at) / RFU TMPRSS4 (11748680_a_at) / Fold change /veh TMPRSS4 (11748680_a_at) / RFU FAM212B (11763350_a_at) / Fold change /veh FAM212B (11763350_a_at) / RFU PLEKHG5 (11743358_a_at) / Fold change /veh PLEKHG5 (11743358_a_at) / RFU ZSCAN30 (11745921_a_at) / Fold change /veh ZSCAN30 (11745921_a_at) / RFU CMKLR1 (11741424_a_at) / Fold change /veh CMKLR1 (11741424_a_at) / RFU LOC101060620 /// MAPK8IP1 (11723275_at) / Fold change /veh LOC101060620 /// MAPK8IP1 (11723275_at) / RFU SPTSSB (11747773_x_at) / Fold change /veh SPTSSB (11747773_x_at) / RFU PRSS12 (11739890_at) / Fold change /veh PRSS12 (11739890_at) / RFU BIN1 (11741810_x_at) / Fold change /veh BIN1 (11741810_x_at) / RFU WNT11 (11732464_a_at) / Fold change /veh WNT11 (11732464_a_at) / RFU C10orf10 (11716521_a_at) / Fold change /veh C10orf10 (11716521_a_at) / RFU C5orf56 (11738089_at) / Fold change /veh C5orf56 (11738089_at) / RFU CYB561 (11721691_x_at) / Fold change /veh CYB561 (11721691_x_at) / RFU ANKRD19P (11752326_a_at) / Fold change /veh ANKRD19P (11752326_a_at) / RFU OR2T12 /// OR2T33 /// OR2T8 (11738714_s_at) / Fold change /veh OR2T12 /// OR2T33 /// OR2T8 (11738714_s_at) / RFU VCAN (11748164_a_at) / Fold change /veh VCAN (11748164_a_at) / RFU JSRP1 (11732532_at) / Fold change /veh JSRP1 (11732532_at) / RFU KRTAP10-11 (11738290_x_at) / Fold change /veh KRTAP10-11 (11738290_x_at) / RFU MYO3A (11730013_a_at) / Fold change /veh MYO3A (11730013_a_at) / RFU EBF3 (11725865_a_at) / Fold change /veh EBF3 (11725865_a_at) / RFU CAMK2N1 (11719241_x_at) / Fold change /veh CAMK2N1 (11719241_x_at) / RFU C5orf56 (11738088_a_at) / Fold change /veh C5orf56 (11738088_a_at) / RFU OLFML3 (11715873_a_at) / Fold change /veh OLFML3 (11715873_a_at) / RFU LOC100653217 /// NTM (11731650_a_at) / Fold change /veh LOC100653217 /// NTM (11731650_a_at) / RFU MAPK11 (11762145_a_at) / Fold change /veh MAPK11 (11762145_a_at) / RFU FIZ1 (11724087_x_at) / Fold change /veh FIZ1 (11724087_x_at) / RFU OASL (11726364_x_at) / Fold change /veh OASL (11726364_x_at) / RFU SOX15 (11748057_x_at) / Fold change /veh SOX15 (11748057_x_at) / RFU CD79A (11719716_a_at) / Fold change /veh CD79A (11719716_a_at) / RFU HIST1H1D (11736915_at) / Fold change /veh HIST1H1D (11736915_at) / RFU CASKIN2 (11723855_a_at) / Fold change /veh CASKIN2 (11723855_a_at) / RFU LOC730098 (11760151_x_at) / Fold change /veh LOC730098 (11760151_x_at) / RFU OR4N2 (11742367_at) / Fold change /veh OR4N2 (11742367_at) / RFU PRRT2 (11749266_a_at) / Fold change /veh PRRT2 (11749266_a_at) / RFU SNX32 (11753110_a_at) / Fold change /veh SNX32 (11753110_a_at) / RFU CDHR5 (11726645_a_at) / Fold change /veh CDHR5 (11726645_a_at) / RFU RCAN1 (11760418_a_at) / Fold change /veh RCAN1 (11760418_a_at) / RFU FAM167A (11723789_a_at) / Fold change /veh FAM167A (11723789_a_at) / RFU FAM26E (11764081_at) / Fold change /veh FAM26E (11764081_at) / RFU ISYNA1 (11749810_s_at) / Fold change /veh ISYNA1 (11749810_s_at) / RFU ACY1 (11761880_at) / Fold change /veh ACY1 (11761880_at) / RFU 11764098_at / Fold change /veh 11764098_at / RFU SAMD14 (11745864_x_at) / Fold change /veh SAMD14 (11745864_x_at) / RFU NPB (11741838_a_at) / Fold change /veh NPB (11741838_a_at) / RFU TMPRSS6 (11731388_a_at) / Fold change /veh TMPRSS6 (11731388_a_at) / RFU KRTAP10-2 (11738614_at) / Fold change /veh KRTAP10-2 (11738614_at) / RFU ARHGAP8 /// PRR5-ARHGAP8 (11727945_x_at) / Fold change /veh ARHGAP8 /// PRR5-ARHGAP8 (11727945_x_at) / RFU KRTAP5-7 /// NADSYN1 (11734609_at) / Fold change /veh KRTAP5-7 /// NADSYN1 (11734609_at) / RFU RASL12 (11751679_a_at) / Fold change /veh RASL12 (11751679_a_at) / RFU CDKN2B (11736163_a_at) / Fold change /veh CDKN2B (11736163_a_at) / RFU PRF1 (11729649_at) / Fold change /veh PRF1 (11729649_at) / RFU, ZNF638 /// ZNF638-IT1 / Fold change vs veh, ZNF638 /// ZNF638-IT1 / RFU, PANK3 / Fold change vs veh, PANK3 / RFU, SH3YL1 / Fold change vs veh, SH3YL1 / RFU, ZEB2 / Fold change vs veh, ZEB2 / RFU, NRIP1 / Fold change vs veh, NRIP1 / RFU, PTTG1IP / Fold change vs veh, PTTG1IP / RFU, CAPN2 / Fold change vs veh, CAPN2 / RFU, MED14 / Fold change vs veh, MED14 / RFU, SNORA58 / Fold change vs veh, SNORA58 / RFU, C1orf63 / Fold change vs veh, C1orf63 / RFU, LRRFIP1 / Fold change vs veh, LRRFIP1 / RFU, NDUFAF7 / Fold change vs veh, NDUFAF7 / RFU, SLC12A2 / Fold change vs veh, SLC12A2 / RFU, IBTK / Fold change vs veh, IBTK / RFU, ESF1 / Fold change vs veh, ESF1 / Fold change vs veh, TMEM50B / RFU, TAOK1 / Fold change vs veh, TAOK1 / RFU, ACBD3 / Fold change vs veh, ACBD3 / RFU, TMA16 / Fold change vs veh, TMA16 / RFU, RWDD3 / Fold change vs veh, RWDD3 / RFU, BCAT1 / Fold change vs veh, BCAT1 / RFU, EDEM3 / Fold change vs veh, EDEM3 / RFU, TMEM33 / Fold change vs veh, TMEM33 / RFU, WDR75 / Fold change vs veh, WDR75 / RFU, AHCTF1 / Fold change vs veh, AHCTF1 / RFU, TFRC / Fold change vs veh, TFRC / RFU, ZDHHC17 / Fold change vs veh, ZDHHC17 / RFU, NOM1 / Fold change vs veh, NOM1 / RFU, ARL8B / Fold change vs veh, ARL8B / RFU, ZBTB11 / Fold change vs veh, ZBTB11 / RFU, TAMM41 / Fold change vs veh, TAMM41 / RFU, KIAA1704 /// LOC100996395 / Fold change vs veh, KIAA1704 /// LOC100996395 / RFU, ING1 / Fold change vs veh, ING1 / RFU, TRMT61B / Fold change vs veh, TRMT61B / RFU, FUBP3 / Fold change vs veh, FUBP3 / RFU, TP53 / Fold change vs veh, TP53 / RFU, TNKS2 / Fold change vs veh, TNKS2 / RFU, ZFP14 / Fold change vs veh, ZFP14 / RFU, ACTR2 / Fold change vs veh, ACTR2 / RFU, PPP3R1 / Fold change vs veh, PPP3R1 / RFU, PIK3R1 / Fold change vs veh, PIK3R1 / RFU, HNRNPA1 / Fold change vs veh, HNRNPA1 / RFU, RNF170 / Fold change vs veh, RNF170 / RFU, ZNF28 / Fold change vs veh, ZNF28 / RFU, RNGTT / Fold change vs veh, RNGTT / RFU, OGT / Fold change vs veh, OGT / RFU, BRD1 / Fold change vs veh, BRD1 / RFU, MARS / Fold change vs veh, MARS / RFU, ZNF655 / Fold change vs veh, ZNF655 / RFU, FAHD1 / Fold change vs veh, FAHD1 / RFU, BDP1 / Fold change vs veh, BDP1 / RFU, LRRCC1 / Fold change vs veh, LRRCC1 / RFU, ARID1A / Fold change vs veh, ARID1A / RFU, ZNF146 / Fold change vs veh, ZNF146 / RFU, ZNF330 / Fold change vs veh, ZNF330 / RFU, GPN3 / Fold change vs veh, GPN3 / RFU, C9orf123 / Fold change vs veh, C9orf123 / RFU, N4BP2L2 / Fold change vs veh, N4BP2L2 / RFU, ARFIP1 / Fold change vs veh, ARFIP1 / RFU, FAM179B / Fold change vs veh, FAM179B / RFU, BCL10 / Fold change vs veh, BCL10 / RFU, UHRF1BP1L / Fold change vs veh, UHRF1BP1L / RFU, BET1 / Fold change vs veh, BET1 / RFU, CNOT2 / Fold change vs veh, CNOT2 / RFU, ZNF268 / Fold change vs veh, ZNF268 / Fold change vs veh, ZNF507 / RFU, DGCR2 / Fold change vs veh, DGCR2 / RFU, WDSUB1 / Fold change vs veh, WDSUB1 / Fold change vs veh, HSP90B1 /// MIR3652 / RFU, ADSS / Fold change vs veh, ADSS / RFU, GK / Fold change vs veh, GK / RFU, ZNF148 / Fold change vs veh, ZNF148 / RFU, TAF9 / Fold change vs veh, TAF9 / RFU, SLC1A5 / Fold change vs veh, SLC1A5 / RFU, SLMO2 / Fold change vs veh, SLMO2 / RFU, ABCC4 / Fold change vs veh, ABCC4 / RFU, LOC101060439 /// RAP1B / Fold change vs veh, LOC101060439 /// RAP1B / RFU, RFX7 / Fold change vs veh, RFX7 / RFU, GTPBP10 / Fold change vs veh, GTPBP10 / RFU, CNEP1R1 / Fold change vs veh, CNEP1R1 / RFU, BIVM-ERCC5 /// ERCC5 / Fold change vs veh, BIVM-ERCC5 /// ERCC5 / RFU, ILF3 / Fold change vs veh, ILF3 / RFU 11762660_at / Fold change /veh 11762660_at / RFU VCAN (11757783_s_at) / Fold change /veh VCAN (11757783_s_at) / RFU DDX43 (11728927_at) / Fold change /veh DDX43 (11728927_at) / RFU KRT8 (11758188_x_at) / Fold change /veh KRT8 (11758188_x_at) / RFU NKD1 (11759106_at) / Fold change /veh NKD1 (11759106_at) / RFU SRD5A1 (11742802_a_at) / Fold change /veh SRD5A1 (11742802_a_at) / RFU TPSAB1 /// TPSB2 (11721975_s_at) / Fold change /veh TPSAB1 /// TPSB2 (11721975_s_at) / RFU GSTM3 (11746129_a_at) / Fold change /veh GSTM3 (11746129_a_at) / RFU IL23R (11737362_x_at) / Fold change /veh IL23R (11737362_x_at) / RFU TMEM51 (11727254_a_at) / Fold change /veh TMEM51 (11727254_a_at) / RFU PIWIL2 (11732686_x_at) / Fold change /veh PIWIL2 (11732686_x_at) / RFU ORM1 (11744905_x_at) / Fold change /veh ORM1 (11744905_x_at) / RFU CCDC152 (11743942_at) / Fold change /veh CCDC152 (11743942_at) / RFU ECM1 (11717891_a_at) / Fold change /veh ECM1 (11717891_a_at) / RFU IL23R (11748794_a_at) / Fold change /veh IL23R (11748794_a_at) / RFU TNFAIP8L3 (11732012_x_at) / Fold change /veh TNFAIP8L3 (11732012_x_at) / RFU MBOAT4 (11741988_at) / Fold change /veh MBOAT4 (11741988_at) / RFU 11764193_at / Fold change /veh 11764193_at / RFU TMEM53 (11763286_at) / Fold change /veh TMEM53 (11763286_at) / RFU MAGEB2 (11727129_at) / Fold change /veh MAGEB2 (11727129_at) / RFU TMEM200A (11744735_a_at) / Fold change /veh TMEM200A (11744735_a_at) / RFU CCDC152 (11751479_a_at) / Fold change /veh CCDC152 (11751479_a_at) / RFU FAM211A (11726209_a_at) / Fold change /veh FAM211A (11726209_a_at) / RFU RGS16 (11746705_a_at) / Fold change /veh RGS16 (11746705_a_at) / RFU VCAN (11755009_s_at) / Fold change /veh VCAN (11755009_s_at) / RFU RHOB (11743442_s_at) / Fold change /veh RHOB (11743442_s_at) / RFU RGS16 (11720943_a_at) / Fold change /veh RGS16 (11720943_a_at) / RFU RGS16 (11720944_at) / Fold change /veh RGS16 (11720944_at) / RFU, VPS4B / Fold change vs veh, VPS4B / RFU, CREB1 / Fold change vs veh, CREB1 / RFU, DNAJC13 / Fold change vs veh, DNAJC13 / RFU, GNAQ / Fold change vs veh, GNAQ / RFU, CDK5R1 / Fold change vs veh, CDK5R1 / RFU, ZRANB3 / Fold change vs veh, ZRANB3 / RFU, CUL4A / Fold change vs veh, CUL4A / RFU, CCNY / Fold change vs veh, CCNY / RFU, UFL1 / Fold change vs veh, UFL1 / RFU, COG3 / Fold change vs veh, COG3 / RFU, DIAPH2 / Fold change vs veh, DIAPH2 / RFU, SKA2 / Fold change vs veh, SKA2 / RFU, AFF3 / Fold change vs veh, AFF3 / RFU, LMF1 / Fold change vs veh, LMF1 / RFU, IPO11 / Fold change vs veh, IPO11 / RFU, DFFB / Fold change vs veh, DFFB / RFU, FOXP1 / Fold change vs veh, FOXP1 / RFU, CARD8 / Fold change vs veh, CARD8 / RFU, STRN3 / Fold change vs veh, STRN3 / RFU, ADK / Fold change vs veh, ADK / RFU, RASSF2 / Fold change vs veh, RASSF2 / RFU, WIPF1 / Fold change vs veh, WIPF1 / RFU, LARP1B / Fold change vs veh, LARP1B / RFU, RASA1 / Fold change vs veh, RASA1 / RFU, RB1 / Fold change vs veh, RB1 / RFU, PPFIA1 / Fold change vs veh, PPFIA1 / RFU, MAT2A / Fold change vs veh, MAT2A / RFU, CCT5 / Fold change vs veh, CCT5 / RFU, WDR92 / Fold change vs veh, WDR92 / RFU, CUX1 / Fold change vs veh, CUX1 / RFU, TTC7A / Fold change vs veh, TTC7A / RFU, TMEM135 / Fold change vs veh, TMEM135 / RFU, DEPTOR / Fold change vs veh, DEPTOR / RFU, CPM / Fold change vs veh, CPM / RFU, DNAJB6 / Fold change vs veh, DNAJB6 / RFU, CACNA2D3 / Fold change vs veh, CACNA2D3 / RFU, DTX4 / Fold change vs veh, DTX4 / RFU, TFCP2 / Fold change vs veh, TFCP2 / RFU, GMCL1 /// GMCL1P1 / Fold change vs veh, GMCL1 /// GMCL1P1 / RFU, AEBP2 / Fold change vs veh, AEBP2 / RFU, SNHG1 /// SNORD22 /// SNORD25 /// SNORD26 /// SNORD27 /// SNORD28 /// SNORD29 /// SNORD31 / Fold change vs veh, SNHG1 /// SNORD22 /// SNORD25 /// SNORD26 /// SNORD27 /// SNORD28 /// SNORD29 /// SNORD31 / Fold change (Aza/veh), C12orf56 (ProbeSet 11735607_a_at) / Fold change (ACY-1035/veh), C12orf56 (ProbeSet 11735607_a_at) / Fold change (Aza/veh), FGFR1OP (ProbeSet 11751329_s_at) / Fold change (ACY-1035/veh), FGFR1OP (ProbeSet 11751329_s_at) / Fold change (Aza/veh), VPS36 (ProbeSet 11739960_a_at) / Fold change (ACY-1035/veh), VPS36 (ProbeSet 11739960_a_at) / RFU SYPL1 (11715823_x_at) / Fold change /veh SYPL1 (11715823_x_at) / RFU IGFBP7 (11715501_s_at) / Fold change /veh IGFBP7 (11715501_s_at) / RFU REEP3 (11722064_at) / Fold change /veh REEP3 (11722064_at) / RFU IGLL1 (11728026_x_at) / Fold change /veh IGLL1 (11728026_x_at): dose or concentration left out as unconfirmed
Conditions: ProbeSet 11759094_a_at; LIST D

## Nc1ncn([C@@H]2O[C@H](CO)[C@@H](O)[C@H]2O)c(=O)n1 [azacitidine]
  RFU, GNAQ: 421.57 RFU

Source: publication PMC5218480 (PLoS ONE, 2017)
